Results on one compound are retold here after patent US20040077650A1, “Cannabinoid receptor ligands and uses thereof” (Pfizer Inc., priority 2002, published 2004).

This experiment has as its target T1, CB-1 receptor (Rattus norvegicus, UniProt P20272).
T1 construct: tissue Pel Freeze Biologicals, Rogers, Ark; host or cells: rat brain membrane homogenate
Briefly: CB-1 receptor binding assay ([3H]SR141716A displacement). The note with it: inhibition of [3H] SR141716A binding, rat brain tissue, 20° C. for 60 minutes. As to the method: The following assays were designed to detect compounds that inhibit the binding of [3H] SR141716A (selective CB-1 radiolabeled ligand) and [3H] 5-(1,1-dimethyl-heptyl)-2-[5-hydroxy-2-(3-hydroxy-propyl)-cyclohexyl]-phenol (CB-1/CB-2 radiolabeled ligand) to their respective receptors.
PelFreeze brains (available from Pel Freeze Biologicals, Rogers, Ark.) were cut up and placed in tissue preparation buffer (5 mM Tris HCl, pH=7.4 and 2 mM EDTA), polytroned at high speed and kept on ice for 15 minutes. The homogenate was then spun at 1,000×g for 5 minutes at 4° C. The supernatant was recovered and centrifuged at 100,000×G for 1 hour at 4° C. The pellet was then re-suspended in 25 ml of TME ([…] Tris, pH=7.4, 5 mM MgCl2, and 1 mM EDTA) per brain used. A protein assay was performed and 200 μl of tissue totaling 20 μg was added to the assay.
The test compounds were diluted in drug buffer (0.5% BSA, 10% DMSO and TME) and then 25 μl were added to a deep well polypropylene plate. [3H] SR141716A was diluted in a ligand buffer (0.5% BSA plus TME) and 25 μl were added to the plate. A BCA protein assay was used to determine the appropriate tissue concentration and then 200 μl of rat brain tissue at the appropriate concentration was added to the plate. […] In the morning the filters were counted on a Wallac Betaplate™ counter (available from PerkinElmer Life Sciences™, Boston, Mass.).

T1 sequence (P20272 whole entry): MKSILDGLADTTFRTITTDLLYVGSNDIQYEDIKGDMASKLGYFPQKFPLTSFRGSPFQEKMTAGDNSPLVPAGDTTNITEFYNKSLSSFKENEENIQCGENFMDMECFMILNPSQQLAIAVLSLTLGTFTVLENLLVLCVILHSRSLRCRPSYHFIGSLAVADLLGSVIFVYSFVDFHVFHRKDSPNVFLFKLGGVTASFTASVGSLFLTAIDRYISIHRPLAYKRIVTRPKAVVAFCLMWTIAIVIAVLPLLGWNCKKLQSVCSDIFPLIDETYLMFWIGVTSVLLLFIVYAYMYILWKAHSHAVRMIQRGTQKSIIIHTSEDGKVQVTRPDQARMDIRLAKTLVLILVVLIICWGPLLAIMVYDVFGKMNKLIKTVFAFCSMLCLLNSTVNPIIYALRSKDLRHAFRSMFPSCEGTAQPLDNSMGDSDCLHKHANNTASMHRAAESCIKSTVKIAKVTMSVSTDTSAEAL

Compound `Cc1c(-c2ncn(C)c2-c2ccccc2)nn(-c2ccccc2Cl)c1-c1ccc(Cl)cc1` [Example 1B-13, 5-(4-Chloro-phenyl)-1-(2-chloro-phenyl)-4-methyl-3-(1-methyl-5-phenyl-1H-imidazol-4-yl)-1H-pyrazole] yielded a binding affinity of 371 nM.
